Here are results for 7 compounds from patent publication USRE50528E1, “Compounds and compositions for modulating EGFR mutant kinase activities” (Yuhan Corporation, priority 2014, dated 2025).

The target of one assay is T1, EGFR mutant T790M (Homo sapiens, UniProt P00533, T790M).
T1 construct: truncated human JAK3, EGFR mutants such as del E746-A750; purchased Carna Biosciences
In words: Kinase inhibition assay, EGFR mutant T790M.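 Also: truncated human EGFR mutant enzyme preincubated two hours with compound, then ATP plus ULight-PolyGT peptide for one hour, Europium-labeled antibody LANCE detection, IC50.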 Particulars: biochemical potency.

The target of another assay is T2, EGFR mutant L858R/T790M (Homo sapiens, UniProt P00533, L858R/T790M).
T2 construct: truncated human JAK3, EGFR mutants such as del E746-A750; purchased Carna Biosciences
T2 sequence (P00533 669-1210 T790M/L858R limits assumed): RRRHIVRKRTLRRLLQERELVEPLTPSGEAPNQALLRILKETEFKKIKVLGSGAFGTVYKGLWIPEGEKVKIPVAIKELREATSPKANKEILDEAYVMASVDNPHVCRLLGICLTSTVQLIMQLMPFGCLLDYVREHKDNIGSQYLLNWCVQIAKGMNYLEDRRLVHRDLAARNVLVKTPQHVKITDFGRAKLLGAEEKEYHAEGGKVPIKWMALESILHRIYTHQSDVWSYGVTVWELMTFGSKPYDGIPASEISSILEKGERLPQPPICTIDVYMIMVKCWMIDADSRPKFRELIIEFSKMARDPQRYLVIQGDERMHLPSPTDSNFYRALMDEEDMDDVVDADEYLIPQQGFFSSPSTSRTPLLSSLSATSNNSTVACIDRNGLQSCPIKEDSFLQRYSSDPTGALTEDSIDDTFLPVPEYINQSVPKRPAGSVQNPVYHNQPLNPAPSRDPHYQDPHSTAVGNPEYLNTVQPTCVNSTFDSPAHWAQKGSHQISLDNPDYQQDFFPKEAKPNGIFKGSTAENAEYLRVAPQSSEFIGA
Briefly: Kinase inhibition assay, EGFR L858R/T790M.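 Also: truncated human enzyme preincubated two hours with compound, then one hour with one millimolar ATP and ULight-PolyGT peptide, Europium-labeled antibody detection, IC50.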 Particulars: read-out: EGFR mutants L858R/T790M. It counts as biochemical.

In another assay the target is T3, EGFR mutant Del19/T790M (Homo sapiens, UniProt P00533, DEL746-750/T790M).
T3 construct: truncated human JAK3, EGFR mutants such as del E746-A750; purchased Carna Biosciences
T3 sequence (P00533 with tags, fused parts or gaps DEL746-750/T790M limits assumed): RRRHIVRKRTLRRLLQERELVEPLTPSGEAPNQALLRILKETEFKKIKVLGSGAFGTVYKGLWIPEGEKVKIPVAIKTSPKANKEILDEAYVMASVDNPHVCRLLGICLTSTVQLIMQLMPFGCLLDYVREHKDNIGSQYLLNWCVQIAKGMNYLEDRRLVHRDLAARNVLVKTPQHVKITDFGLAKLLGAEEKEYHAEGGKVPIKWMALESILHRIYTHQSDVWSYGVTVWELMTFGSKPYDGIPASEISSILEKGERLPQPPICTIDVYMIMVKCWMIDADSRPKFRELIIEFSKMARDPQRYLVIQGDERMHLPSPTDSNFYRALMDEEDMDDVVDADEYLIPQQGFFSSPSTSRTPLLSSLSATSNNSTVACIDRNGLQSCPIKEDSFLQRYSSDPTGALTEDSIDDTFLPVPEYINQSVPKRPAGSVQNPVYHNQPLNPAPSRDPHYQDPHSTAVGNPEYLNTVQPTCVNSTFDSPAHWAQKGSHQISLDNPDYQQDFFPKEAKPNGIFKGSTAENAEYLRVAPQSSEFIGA
Briefly: Kinase inhibition assay, EGFR del E746-A750/T790M. It is filed as biochemical. Particulars: read-out: EGFR mutants Del19/T790M.

A further assay addresses T4, EGFR mutant L858R (Homo sapiens, UniProt P00533, L858R).
T4 construct: truncated human JAK3, EGFR mutants such as del E746-A750; purchased Carna Biosciences
In words: Kinase inhibition assay, EGFR L858R.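 Also: truncated human EGFR L858R kinase with compound preincubation, ULight-PolyGT peptide phosphorylation read by Europium-antibody Lance detection, IC50.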 It counts as biochemical. The settings on record: read-out: EGFR mutants L858R.

Assay [1] has as its target T5, EGFR mutant Del19 (E746-A750) (Homo sapiens, UniProt P00533, DEL746-750).
T5 construct: truncated human JAK3, EGFR mutants such as del E746-A750; purchased Carna Biosciences
In words: Kinase inhibition assay, EGFR del E746-A750.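 Also: truncated human EGFR mutant kinase, two-hour preincubation with compound, then one-hour reaction with ATP and ULight-PolyGT peptide, LANCE Europium-antibody phosphorylation readout, IC50.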 It is filed as biochemical. Particulars: read-out: EGFR mutants Del19 (E746-A750).

The next assay has as its target T6, SYK (Homo sapiens, UniProt P43405).
T6 construct: Purified human, full-length SYK, KDR; purchased Carna Biosciences
In words: Kinase inhibition assay, SYK.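 Also: purified full-length human SYK pre-incubated 30 min with compound, then ULight-TK peptide phosphorylation for 1 h, detected with Europium-labeled antibody in Lance buffer.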 It is filed as biochemical. Particulars: biochemical potency.

Bounds are passed on as bounds.

T4 sequence (P00533 669-1210 L858R limits assumed): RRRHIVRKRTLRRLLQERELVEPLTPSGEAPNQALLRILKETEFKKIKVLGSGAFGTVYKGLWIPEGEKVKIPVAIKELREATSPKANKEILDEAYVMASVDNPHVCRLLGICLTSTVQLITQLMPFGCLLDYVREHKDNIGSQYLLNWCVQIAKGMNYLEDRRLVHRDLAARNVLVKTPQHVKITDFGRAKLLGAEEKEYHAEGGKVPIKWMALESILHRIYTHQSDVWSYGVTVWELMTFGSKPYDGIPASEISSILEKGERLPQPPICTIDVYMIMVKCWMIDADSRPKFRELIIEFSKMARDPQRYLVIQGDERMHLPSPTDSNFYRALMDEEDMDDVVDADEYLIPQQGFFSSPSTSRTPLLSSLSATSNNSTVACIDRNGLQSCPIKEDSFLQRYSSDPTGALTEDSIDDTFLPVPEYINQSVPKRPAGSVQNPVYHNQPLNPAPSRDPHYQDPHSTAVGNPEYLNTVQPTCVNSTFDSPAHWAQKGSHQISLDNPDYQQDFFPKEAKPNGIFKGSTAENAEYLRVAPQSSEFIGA
T1 sequence (P00533 669-1210 T790M limits assumed): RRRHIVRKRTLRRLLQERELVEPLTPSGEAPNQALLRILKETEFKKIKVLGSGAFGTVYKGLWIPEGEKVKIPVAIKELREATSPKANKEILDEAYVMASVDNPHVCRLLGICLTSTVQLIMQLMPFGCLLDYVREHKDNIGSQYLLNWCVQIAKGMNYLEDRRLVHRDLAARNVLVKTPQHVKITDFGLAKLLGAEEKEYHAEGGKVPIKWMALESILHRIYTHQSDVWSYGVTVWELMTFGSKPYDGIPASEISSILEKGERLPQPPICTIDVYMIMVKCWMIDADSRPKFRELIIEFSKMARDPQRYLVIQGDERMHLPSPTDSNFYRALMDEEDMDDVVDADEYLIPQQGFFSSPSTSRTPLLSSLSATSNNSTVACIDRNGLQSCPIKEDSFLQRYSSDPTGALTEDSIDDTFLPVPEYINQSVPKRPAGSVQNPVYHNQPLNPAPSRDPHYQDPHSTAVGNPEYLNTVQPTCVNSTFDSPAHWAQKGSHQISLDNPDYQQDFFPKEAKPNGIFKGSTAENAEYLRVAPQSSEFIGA
T5 sequence (P00533 with tags, fused parts or gaps DEL746-750 limits assumed): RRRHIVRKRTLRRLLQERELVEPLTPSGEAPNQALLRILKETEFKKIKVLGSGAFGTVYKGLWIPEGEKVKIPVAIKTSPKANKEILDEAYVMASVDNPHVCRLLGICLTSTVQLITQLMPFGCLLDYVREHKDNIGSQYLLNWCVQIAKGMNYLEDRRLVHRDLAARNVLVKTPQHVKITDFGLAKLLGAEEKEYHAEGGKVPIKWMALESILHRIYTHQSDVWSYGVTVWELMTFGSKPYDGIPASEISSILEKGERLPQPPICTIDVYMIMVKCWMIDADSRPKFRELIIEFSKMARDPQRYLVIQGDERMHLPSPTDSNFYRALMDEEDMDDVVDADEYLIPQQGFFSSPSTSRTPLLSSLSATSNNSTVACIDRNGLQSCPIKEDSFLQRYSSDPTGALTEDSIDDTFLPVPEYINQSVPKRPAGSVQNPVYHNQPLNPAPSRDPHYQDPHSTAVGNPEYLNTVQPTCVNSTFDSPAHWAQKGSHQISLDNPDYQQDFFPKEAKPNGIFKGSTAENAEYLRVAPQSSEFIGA

Regarding `C=CC(=O)Nc1cc(Nc2ncc(C)c(-n3cc(CN4CC[C@H](O)C4)c(C)n3)n2)c(OC)cc1N1CCOCC1` [Compound 28, (S)—N-(5-(4-(4-((3-hydroxypyrrolidin-1-yl)methyl)-3-methyl-1H-pyrazol-1-yl)-5-methylpyrimidin-2-ylamino)-4-methoxy-2-morpholinophenyl)acrylamide], the IC50 at EGFR mutant T790M was < 20 nM; on EGFR mutant L858R/T790M, < 20 nM; at EGFR mutant Del19/T790M, < 20 nM; on EGFR mutant L858R it was < 20 nM; in assay [1], < 20 nM; at SYK it was 201 to 1000 nM.
As to `C=CC(=O)Nc1cc(Nc2nccc(-n3cc(CN4CCC4)c(-c4ccccc4)n3)n2)c(OC)cc1N1CCC1` [Compound 87, N-(2-(azetidin-1-yl)-5-(4-(4-(azetidin-1-ylmethyl)-3-phenyl-1H-pyrazol-1-yl)pyrimidin-2-ylamino)-4-methoxyphenyl)acrylamide], the IC50 against EGFR mutant T790M was < 20 nM; at EGFR mutant L858R/T790M, < 20 nM; on EGFR mutant Del19/T790M, < 20 nM; at EGFR mutant L858R it was < 20 nM; in assay [1] it was < 20 nM; on SYK it was > 1000 nM.
In the case of `C=CC(=O)Nc1cc(Nc2nccc(-n3cc(CN(C)C)c(-c4ccccc4)n3)n2)c(OC)cc1N(C)C` [Compound 83, N-(2-(dimethylamino)-5-(4-(4-((dimethylamino)methyl)-3-phenyl-1H-pyrazol-1-yl)pyrimidin-2-ylamino)-4-methoxyphenyl)acrylamide], the IC50 was < 20 nM against EGFR mutant T790M; < 20 nM at EGFR mutant L858R/T790M; < 20 nM at EGFR mutant Del19/T790M; < 20 nM at EGFR mutant L858R; < 20 nM in assay [1]; > 1000 nM at SYK.
Regarding `C=CC(=O)Nc1cc(Nc2nccc(-n3cc(CN4CCC4)c(-c4ccccc4)n3)n2)c(OC)cc1N(C)C1COC1` [Compound 97, N-(5-(4-(4-(azetidin-1-ylmethyl)-3-phenyl-1H-pyrazol-1-yl)pyrimidin-2-ylamino)-4-methoxy-2-(methyl(oxetan-3-yl)amino)phenyl)acrylamide], the IC50 at EGFR mutant T790M was 20 to 200 nM; on EGFR mutant L858R/T790M, < 20 nM; at EGFR mutant Del19/T790M, < 20 nM; at EGFR mutant L858R, < 20 nM; in assay [1], 20 to 200 nM; on SYK, > 1000 nM.
Consider `C=CC(=O)Nc1cc(Nc2ncc(Cl)c(-n3cc(CN4C[C@H](O)[C@H](OC)C4)c(C)n3)n2)c(OC)cc1N1CCOCC1` [Compound 51, N-(5-(5-chloro-4-(4-(((3S,4R)-3-hydroxy-4-methoxypyrrolidin-1-yl)methyl)-3-methyl-1H-pyrazol-1-yl)pyrimidin-2-ylamino)-4-methoxy-2-morpholinophenyl)acrylamide], for which the IC50 at EGFR mutant T790M was < 20 nM; at EGFR mutant L858R/T790M, < 20 nM; on EGFR mutant Del19/T790M it was < 20 nM; at EGFR mutant L858R, 20 to 200 nM; in assay [1] it was 20 to 200 nM; against SYK it was > 1000 nM.
For `COc1cc(N2CCOCC2)c([N+](=O)[O-])cc1Nc1nccc(-n2cc(CN(C)C)c(-c3ccccc3)n2)n1` [Compound 152, 4-(4-((dimethylamino)methyl)-3-phenyl-1H-pyrazol-1-yl)-N-(2-methoxy-4-morpholino-5-nitrophenyl)pyrimidin-2-amine, reference compound], the IC50 (against EGFR mutant T790M; on EGFR mutant L858R/T790M; at EGFR mutant Del19/T790M; on EGFR mutant L858R; in assay [1]; against SYK) was > 1000 nM each time.
With `C=CC(=O)Nc1cc(Nc2ncc(F)c(-n3cc(CN4CCC4)c(-c4ccoc4)c3)n2)c(OC)cc1N1CCOCC1` [Compound 130, N-(5-(4-(3-(azetidin-1-ylmethyl)-4-(furan-3-yl)-1H-pyrrol-1-yl)-5-fluoropyrimidin-2-ylamino)-4-methoxy-2-morpholinophenyl)acrylamide], the IC50 on EGFR mutant T790M is < 20 nM; on EGFR mutant L858R/T790M, < 20 nM; on EGFR mutant Del19/T790M, < 20 nM; at EGFR mutant L858R it was < 20 nM; in assay [1], < 20 nM; at SYK, 201 to 1000 nM.
